ChEMBL document CHEMBL1821572, “Discovery of a novel series of selective HCN1 blockers” (Bioorg Med Chem Lett, 2011)

How the values were obtained:
[1] = target: T1, Potassium/sodium hyperpolarization-activated cyclic nucleotide-gated channel 4 (Homo sapiens, UniProt Q9Y3Q4); experiment: Inhibition of human HCN4 heterologously expressed in HEK-293 cells after 30 mins by VIPR assay; type: cell-based, HEK293
T1 sequence (Q9Y3Q4 whole entry): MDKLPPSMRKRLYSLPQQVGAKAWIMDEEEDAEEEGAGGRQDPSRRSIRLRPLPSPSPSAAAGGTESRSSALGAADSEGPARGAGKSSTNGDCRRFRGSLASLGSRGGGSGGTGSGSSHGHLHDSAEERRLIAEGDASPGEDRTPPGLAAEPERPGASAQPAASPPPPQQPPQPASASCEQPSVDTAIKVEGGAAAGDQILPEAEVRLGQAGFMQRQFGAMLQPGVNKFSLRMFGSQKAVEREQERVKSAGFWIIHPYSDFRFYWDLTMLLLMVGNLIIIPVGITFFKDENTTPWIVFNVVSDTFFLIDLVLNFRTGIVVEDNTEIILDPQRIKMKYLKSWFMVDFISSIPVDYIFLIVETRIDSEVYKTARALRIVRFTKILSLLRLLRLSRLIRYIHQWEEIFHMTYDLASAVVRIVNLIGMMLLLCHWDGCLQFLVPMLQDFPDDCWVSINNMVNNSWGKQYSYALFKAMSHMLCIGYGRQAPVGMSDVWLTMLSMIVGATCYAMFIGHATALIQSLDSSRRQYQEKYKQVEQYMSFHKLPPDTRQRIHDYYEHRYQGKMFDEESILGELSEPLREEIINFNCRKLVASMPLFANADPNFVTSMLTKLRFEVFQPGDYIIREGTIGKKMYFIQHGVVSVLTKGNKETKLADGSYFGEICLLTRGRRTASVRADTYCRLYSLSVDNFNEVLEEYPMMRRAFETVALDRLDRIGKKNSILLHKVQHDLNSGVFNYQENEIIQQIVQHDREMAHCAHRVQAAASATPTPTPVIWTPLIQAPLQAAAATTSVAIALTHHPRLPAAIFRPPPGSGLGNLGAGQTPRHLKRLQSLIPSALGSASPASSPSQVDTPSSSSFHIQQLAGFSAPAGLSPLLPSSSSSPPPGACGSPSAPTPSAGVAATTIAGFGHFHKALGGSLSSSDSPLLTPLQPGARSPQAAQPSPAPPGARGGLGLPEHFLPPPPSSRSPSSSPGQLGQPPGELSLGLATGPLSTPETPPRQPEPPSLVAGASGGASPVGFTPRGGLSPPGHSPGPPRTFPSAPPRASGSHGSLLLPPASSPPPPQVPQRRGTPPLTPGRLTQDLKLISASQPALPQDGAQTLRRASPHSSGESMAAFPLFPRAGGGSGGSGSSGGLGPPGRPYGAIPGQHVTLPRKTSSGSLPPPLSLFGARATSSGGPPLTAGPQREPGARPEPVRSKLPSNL

[2] = target: T2, Potassium/sodium hyperpolarization-activated cyclic nucleotide-gated channel 1 (Homo sapiens, UniProt O60741); experiment: Inhibition of human HCN1 heterologously expressed in HEK-293 cells after 30 mins by VIPR assay; type: cell-based, HEK293
T2 sequence (O60741 whole entry): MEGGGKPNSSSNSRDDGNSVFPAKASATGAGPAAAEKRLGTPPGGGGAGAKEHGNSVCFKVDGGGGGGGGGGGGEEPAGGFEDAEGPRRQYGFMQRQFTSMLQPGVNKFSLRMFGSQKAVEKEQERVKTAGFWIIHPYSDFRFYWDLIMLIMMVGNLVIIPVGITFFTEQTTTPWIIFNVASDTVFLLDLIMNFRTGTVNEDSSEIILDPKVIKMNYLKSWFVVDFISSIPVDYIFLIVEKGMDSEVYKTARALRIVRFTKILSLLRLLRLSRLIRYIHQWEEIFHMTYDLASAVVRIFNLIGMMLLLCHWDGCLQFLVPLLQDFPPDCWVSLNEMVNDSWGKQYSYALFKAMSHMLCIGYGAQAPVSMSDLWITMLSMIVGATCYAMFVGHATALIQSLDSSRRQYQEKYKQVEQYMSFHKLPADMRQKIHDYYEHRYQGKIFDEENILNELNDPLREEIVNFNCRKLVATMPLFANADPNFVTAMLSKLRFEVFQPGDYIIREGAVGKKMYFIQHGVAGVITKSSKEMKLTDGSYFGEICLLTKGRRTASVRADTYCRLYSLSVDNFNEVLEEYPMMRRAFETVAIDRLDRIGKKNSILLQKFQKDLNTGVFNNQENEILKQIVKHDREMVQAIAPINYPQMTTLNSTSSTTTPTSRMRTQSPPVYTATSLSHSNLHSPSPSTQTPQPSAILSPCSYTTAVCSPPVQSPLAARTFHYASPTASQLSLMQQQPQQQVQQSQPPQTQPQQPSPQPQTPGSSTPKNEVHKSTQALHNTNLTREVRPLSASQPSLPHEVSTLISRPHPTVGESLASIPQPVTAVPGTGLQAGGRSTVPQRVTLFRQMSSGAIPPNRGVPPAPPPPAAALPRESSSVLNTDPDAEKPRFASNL

[3] = species: Homo sapiens; experiment: Selectivity for human HCN1 over human HCN4
[4] = species: Homo sapiens; experiment: Selectivity for human HCN1 over human HCN2
[5] = Half life in human liver microsomes; type: ADME, Microsome
[6] = system: Mus musculus; experiment: Antiallodynic activity in ip dosed C57BL/6 mouse spared-nerve injury model assessed as reduction of tactile allodynia after 60 mins; type: functional; settings: C57BL/6, ip, 1 h
[7] = species: Mus musculus; experiment: Toxicity in C57BL/6 mouse assessed as induction of bradycardia after 50 mins by ECG study; type: organism-based; settings: in vivo

Row | SMILES | IC50 [1] | IC50 [2] | Selectivity ratio [3] | other results
1 | COc1ccccc1C(=O)NCC1(N2CCN(C)CC2)CCCCC1 | 5.01 µM | 0.398 µM | 10 | 
2 | CCOc1ccccc1C(=O)NCC1(N2CCN(CC)CC2)CCCCC1 | 0.158 µM | 0.0316 µM | 10 | 
3 | CCOc1ccccc1C(=O)NCC1(N2CCN(C)CC2)CCCC1 | 5.01 µM | 0.398 µM |  | 
4 | COc1ccc([C@@H](C)CN(C/C=C\CN2C=Cc3cc(OC)c(OC)cc3CC2=O)C/C=C\CN2C=Cc3cc(OC)c(OC)cc3CC2=O)cc1OC |  |  | > 150 | Selectivity ratio [4]: 30
5 | Cc1ccccc1C(=O)NCC1(N2CCN(C)CC2)CCCCC1 | > 200 µM | 63.1 µM | 10 | 
6 | CCc1ccccc1C(=O)NCC1(N2CCN(C(C)C)CC2)CCCCC1 | 79.4 µM | > 200 µM | 10 | 
7 | COc1ccccc1C(=O)NCC1(N2CCN(C)CC2)Cc2ccccc2C1 | 20 µM | 1.26 µM |  | 
8 | CCOc1ccccc1C(=O)NCC1(N2CCN(C)CC2)CCCCC1 | 1.26 µM | 0.126 µM | 10 | half-life [5]: 22 min
9 | CC(C)Oc1ccccc1C(=O)NCC1(N2CCN(C(C)C)CC2)CCCCC1 | 1.58 µM | 0.251 µM | 10 | 
10 | CN1CCN(C2(CNC(=O)c3ccccc3O)Cc3ccccc3C2)CC1 | > 200 µM | > 200 µM |  | 
11 | COc1ccccc1C(=O)NCC1(N2CCCCC2)Cc2ccccc2C1 | > 200 µM | 50.1 µM |  | 
12 | CCOc1ccccc1C(=O)NCC1(N2CCN(C(C)C)CC2)CCOCC1 | 3.98 µM | 0.316 µM |  | 
13 | CCOc1ccccc1C(=O)NCC1(N2CCN(C3CCC3)CC2)CCCCC1 | 0.794 µM | 0.0794 µM | 10 | 
14 | COc1ccc(C(=O)NCC2(N3CCN(C)CC3)Cc3ccccc3C2)cc1 | > 200 µM | 100 µM |  | 
15 | CCOc1ccccc1C(=O)NCC1(N2CCN(C)CC2)Cc2ccccc2C1 | 5.01 µM | 0.398 µM |  | 
16 | CCOc1ccccc1C(=O)NCC1(N2CCN(c3ccccc3)CC2)CCCCC1 | 100 µM | > 200 µM | 10 | 
17 | CCOc1ccccc1C(=O)NCC1(N2CCN(C3CCCC3)CC2)CCCCC1 | 0.794 µM | 0.2 µM | 10 | 

Row | SMILES | IC50 [1] | IC50 [2] | Selectivity ratio [3] | other results
18 | COc1ccccc1C(=O)NCC1(N2CCN(C(C)C)CC2)CCN(c2ccccc2)CC1 | 5.01 µM | 0.631 µM |  | 
19 | CN1CCN(C2(CNC(=O)c3ccccc3F)Cc3ccccc3C2)CC1 | > 200 µM | 25.1 µM |  | 
20 | COc1ccccc1C(=O)NCC1(N2CCN(C)CC2)CCc2ccccc2C1 (configuration not stated) | 6.31 µM | 1.58 µM |  | 
21 | COc1cccc(C(=O)NCC2(N3CCN(C)CC3)Cc3ccccc3C2)c1 | > 200 µM | 63.1 µM |  | 
22 | COc1ccccc1C(=O)NCC1(N2CCN(C(C)C)CC2)CCCCC1 | 0.794 µM | 0.0316 µM | 10 | 
23 | CCOc1ccccc1C(=O)NCC1(N2CCN(C(C)C)CC2)Cc2ccccc2C1 | 3.16 µM | 0.631 µM |  | 
24 | CN1CCN(C2(CNC(=O)c3ccccc3Cl)Cc3ccccc3C2)CC1 | 158 µM | 20 µM |  | 
25 | CCOc1ccccc1C(=O)NCC1(N2CCCCC2)Cc2ccccc2C1 | 39.8 µM | 15.8 µM |  | 
26 | CCOc1ccccc1C(=O)NCC1(N2CCN(C(C)C)CC2)CCCCC1 | 0.316 µM | 0.0158 µM | 10 | 
27 | COc1ccccc1C(=O)NCC(c1ccc(C)cc1)N1CCN(C)CC1 (configuration not stated) | 20 µM | 2.51 µM |  | 
28 | CCN(c1ccccc1)c1cc(NC)[n+](C)c(C)n1.[Cl-] | 0.0316 µM | 0.158 µM |  | ED50 [6]: 3 mg/kg; ED20 [7]: 1.3 mg/kg
29 | CN1CCN(C2(CNC(=O)c3ccccc3OCc3ccccc3)Cc3ccccc3C2)CC1 | 2.51 µM | 0.631 µM |  | 
30 | CN1CCN(C2(CNC(=O)c3ccccc3OC(F)(F)F)Cc3ccccc3C2)CC1 | > 200 µM | 25.1 µM |  | 
31 | CN1CCN(C2(CNC(=O)c3ccccc3Cl)CCCCC2)CC1 | 31.6 µM | > 200 µM | 10 | 
32 | COc1ccccc1C(=O)NCCN1CCN(C)CC1 |  | > 200 µM |  | pIC50 ([1]; hek293): > 3.7
33 | CCOc1ccccc1C(=O)NCC1(N2CCN(C3CC3)CC2)CCCCC1 | 0.316 µM | 0.0501 µM | 10 | 
